Measurements published in patent publication US7119189B2, “Metabotropic GABA [B] receptors, receptor-specific ligands and their uses” (Novartis AG, priority 1997, dated 2006).
“Also recorded” adds a separate entry of the source. Where two headings read alike, the source gives them in different places.

Key:
[1] = test system: native GABAB receptors (130K and 100K proteins); settings: for competition with / displacement of [125I]CGP71872 at native receptors: FIG. 4b; for [125I]CGP71872 labelling in the presence of excess unlabelled antagonist: 1 μM (10^−6 M) competitor
Procedure: The incubation is terminated by centrifugation at 20 000×g for 10 min at 4° C. This step removed free unbound photoaffinity label. […] The suspension is centrifuged at 20 000×g for 10 min and resuspended at a concentration of 8 mg/ml protein in buffer. […] The labelled membranes could be stored at −80° C.

[2] = target: GABAB receptors in membranes from rat cerebral cortex (Rattus norvegicus, UniProt Q9Z0U4); assay: biochemical; format: binding
[3] = target: T1, recombinant GABABR1a receptors in membranes from COS 1 cells (Rattus norvegicus, UniProt Q9Z0U4); assay: biochemical; format: binding
T1 construct: The protein expressed from the 4,376 bp cDNA clone has an apparent molecular mass of about 120 kDa; expressed in transfected cells; host or cells: COS1 cells, transient transfection with the cDNA clone in pcDNAI

GABABR1a = target: T2, GABABR1a (Rattus norvegicus, UniProt Q9Z0U4); assay: Forskolin-stimulated cAMP accumulation in HEK293 cells stably expressing GABABR1a; format: cell-based
T2 construct: The ability of GABABR1a stably expressed in HEK293 cells to reduce forskolin-stimulated cAMP accumulation is analysed; expressed in transfected cells
Procedure: HEK293 cells stably expressing GABABR1a are treated with 20 μM forskolin (Fsk) to stimulate cAMP formation (100%). […] Bars represent mean values+S.E.M. of at least three independent experiments performed in quadruplicate.
GABAB receptors are described to inhibit adenylate cyclase activity, stimulate phospholipase A2, activate K^+-channels, inactivate voltage-dependent Ca^2+-channels and to modulate inositol phospholipid hydrolysis. As GABABR1a and -b have identical sequence in all domains predicted to be intracellular they are expected to be able to couple to the same effector systems. […] The ability of GABABR1a stably expressed in HEK293 cells to reduce forskolin-stimulated cAMP accumulation is analysed (FIG. 5). We chose concentrations of forskolin and L-baclofen that should produce a maximal effect.

[4] = test system: GABAA, benzodiazepine, kainate, AMPA, NMDA receptors, strychnine independent binding site at NMDA receptors, muscarinic cholinergic, α1- and α2-adrenergic …; assay: Receptor selectivity assays at 1 μM; settings: concentration of 1 μM
Procedure: […]. The incubation is terminated by filtration through GF/B Whatman glass fibre filters. […]. The compound is therefore selective for GABAB receptors. […].

[5] = test system: non-transfected HEK293 cells; assay: Forskolin-stimulated cAMP formation in untransfected HEK293 cells (control); format: cell-based

T2 sequence (Q9Z0U4 20-960): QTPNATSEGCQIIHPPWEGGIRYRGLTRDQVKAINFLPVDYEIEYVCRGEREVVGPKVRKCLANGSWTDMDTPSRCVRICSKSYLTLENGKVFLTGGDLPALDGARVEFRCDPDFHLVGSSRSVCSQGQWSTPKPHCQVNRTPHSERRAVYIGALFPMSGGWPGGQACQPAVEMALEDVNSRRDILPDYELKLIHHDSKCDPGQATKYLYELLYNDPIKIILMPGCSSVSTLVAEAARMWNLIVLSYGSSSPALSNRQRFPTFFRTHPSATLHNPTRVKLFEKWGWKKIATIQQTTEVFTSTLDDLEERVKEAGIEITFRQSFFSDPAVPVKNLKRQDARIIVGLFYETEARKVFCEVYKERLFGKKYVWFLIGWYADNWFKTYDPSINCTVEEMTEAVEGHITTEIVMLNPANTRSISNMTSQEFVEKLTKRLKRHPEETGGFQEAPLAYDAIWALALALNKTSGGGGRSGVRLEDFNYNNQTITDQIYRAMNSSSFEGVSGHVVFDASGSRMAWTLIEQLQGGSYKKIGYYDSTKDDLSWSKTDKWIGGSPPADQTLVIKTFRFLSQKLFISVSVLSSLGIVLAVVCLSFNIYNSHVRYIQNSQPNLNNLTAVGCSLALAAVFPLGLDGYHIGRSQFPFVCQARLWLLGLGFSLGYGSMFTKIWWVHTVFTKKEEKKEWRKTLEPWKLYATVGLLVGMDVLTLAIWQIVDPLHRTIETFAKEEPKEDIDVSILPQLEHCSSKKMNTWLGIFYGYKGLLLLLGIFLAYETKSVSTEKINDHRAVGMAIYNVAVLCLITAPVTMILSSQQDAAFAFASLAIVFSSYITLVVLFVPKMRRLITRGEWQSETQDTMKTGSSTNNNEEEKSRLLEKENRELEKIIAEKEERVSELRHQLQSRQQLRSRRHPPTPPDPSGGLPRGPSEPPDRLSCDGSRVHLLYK
T1 sequence (Q9Z0U4 20-960): as above
Sequence of GABAB receptors in membranes from rat cerebral cortex (Q9Z0U4 164-960 limits assumed): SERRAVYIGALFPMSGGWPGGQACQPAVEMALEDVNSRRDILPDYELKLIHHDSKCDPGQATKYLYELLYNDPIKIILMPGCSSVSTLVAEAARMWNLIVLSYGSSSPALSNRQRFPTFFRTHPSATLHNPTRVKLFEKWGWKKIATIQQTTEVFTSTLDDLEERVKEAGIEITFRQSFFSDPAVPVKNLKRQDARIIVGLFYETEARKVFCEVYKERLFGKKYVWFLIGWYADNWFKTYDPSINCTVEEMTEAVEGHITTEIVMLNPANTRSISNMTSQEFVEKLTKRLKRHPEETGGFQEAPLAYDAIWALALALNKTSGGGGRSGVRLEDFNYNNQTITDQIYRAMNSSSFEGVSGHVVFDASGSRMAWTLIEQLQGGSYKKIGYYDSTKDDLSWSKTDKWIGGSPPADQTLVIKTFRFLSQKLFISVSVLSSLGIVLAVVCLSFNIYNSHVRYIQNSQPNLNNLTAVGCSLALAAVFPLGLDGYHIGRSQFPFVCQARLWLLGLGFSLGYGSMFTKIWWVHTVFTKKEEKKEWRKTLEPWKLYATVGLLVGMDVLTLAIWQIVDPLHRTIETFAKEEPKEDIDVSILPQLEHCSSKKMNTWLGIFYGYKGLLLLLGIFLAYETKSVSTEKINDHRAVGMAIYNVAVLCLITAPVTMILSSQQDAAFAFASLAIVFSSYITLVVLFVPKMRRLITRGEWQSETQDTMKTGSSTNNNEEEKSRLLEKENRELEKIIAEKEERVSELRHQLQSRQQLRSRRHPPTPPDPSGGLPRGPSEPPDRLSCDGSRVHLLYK
Sequence of GABAB receptors in membranes from rat cerebral cortex (O88871 41-940, further chain): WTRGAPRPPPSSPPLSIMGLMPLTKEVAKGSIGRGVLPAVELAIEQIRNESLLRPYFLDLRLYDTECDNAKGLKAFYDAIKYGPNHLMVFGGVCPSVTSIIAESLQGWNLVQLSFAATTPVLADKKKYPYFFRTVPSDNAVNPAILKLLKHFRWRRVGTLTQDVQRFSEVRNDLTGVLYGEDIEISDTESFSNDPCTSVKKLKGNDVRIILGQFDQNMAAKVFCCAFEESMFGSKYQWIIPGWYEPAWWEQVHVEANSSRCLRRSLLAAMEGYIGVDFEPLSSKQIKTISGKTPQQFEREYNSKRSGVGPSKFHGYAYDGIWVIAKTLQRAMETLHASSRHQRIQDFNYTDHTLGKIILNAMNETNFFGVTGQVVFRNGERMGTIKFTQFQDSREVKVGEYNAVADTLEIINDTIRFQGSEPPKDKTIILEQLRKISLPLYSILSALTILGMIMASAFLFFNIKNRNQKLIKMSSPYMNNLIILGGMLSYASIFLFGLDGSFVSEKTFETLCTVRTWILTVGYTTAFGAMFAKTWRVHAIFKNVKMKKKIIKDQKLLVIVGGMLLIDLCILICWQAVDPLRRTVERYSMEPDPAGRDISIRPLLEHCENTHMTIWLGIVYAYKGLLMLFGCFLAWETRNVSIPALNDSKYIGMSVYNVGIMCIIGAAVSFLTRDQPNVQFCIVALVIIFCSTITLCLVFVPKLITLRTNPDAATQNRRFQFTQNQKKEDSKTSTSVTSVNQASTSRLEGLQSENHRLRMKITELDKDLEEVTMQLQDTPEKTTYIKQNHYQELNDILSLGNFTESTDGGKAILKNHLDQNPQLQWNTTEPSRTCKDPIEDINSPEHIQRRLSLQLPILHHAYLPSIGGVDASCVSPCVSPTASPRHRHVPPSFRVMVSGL

NCCC[PH](=O)O [CGP 27492 (APPA), 3-aminopropyl-phosphinic acid]
competition with / displacement of [125I]CGP71872 at native receptors [1]: compete

CCOC(OCC)P(=O)(O)CCCN [CGP 35348]
IC50 [2]: 9.3 µM
IC50 [3]: 20 µM
competition with / displacement of [125I]CGP71872 at native receptors [1]: effective displacers

C[C@H](NC[C@H](O)CP(=O)(O)CC1CCCCC1)c1ccc(Cl)c(Cl)c1 [CGP 54626A]
IC50 ([3]; recombinant GABABR1a expressed in COS1 cells, read-out: Inhibition of [125I]CGP 64213 binding, COS1 cells IC50): 0.0016 µM
effect on the L-baclofen inhibition of cAMP accumulation (GABABR1a; 10 μM CGP54626A (FIG. 5), 300 μM L-baclofen): antagonised
[125I]CGP71872 labelling in the presence of excess unlabelled antagonist [1]: no radioactivity is bound to the membranes
[125I]CGP71872 labelling in the presence of excess unlabelled antagonist ([1]; listed as CGP54626A): inhibited
competition with / displacement of [125I]CGP71872 at native receptors [1]: effective displacers

C[C@@H](NC[C@H](O)CP(=O)(O)CCCCCNC(=O)CCc1ccc(O)c(I)c1)c1cccc(C(=O)O)c1 [CGP 64213]
activity in other receptor assays [4]: inactive

NC[C@H](CC(=O)O)c1ccc(Cl)cc1 [L-baclofen]
inhibition of forskolin-stimulated cAMP formation in untransfected cells [5]: does not inhibit; also recorded: No L-baclofen response

pertussis toxin
effect of preincubation on the L-baclofen response / modulation of adenylate cyclase (GABABR1a; 10 ng/ml for 15–20 h): sensitive; also recorded: completely abolishes the effect of L-baclofen
